How the values were obtained:
Experiment in all cases: relative viability (nuclei count vs DMSO), 5 days (fraction); higher = more cells survive
EHT 1864 + Tozasertib = compound: C1COCCN1CC2=CC(=O)C(=CO2)OCCCCCSC3=C4C=CC(=CC4=NC=C3)C(F)(F)F [EHT 1864] + Cc1cc(Nc2cc(N3CCN(C)CC3)nc(Sc3ccc(NC(=O)C4CC4)cc3)n2)n[nH]1 [Tozasertib] (partner 0.1 µM)
Summary of the method: (§1)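 After 5 days of treatment, lung cancer cells in 1536-well plates were fixed and stained in a single step (final 0.05% Triton X-100, 1% formaldehyde, 1 ug/ml Hoechst) and their nuclei counted on 4× images. Treatment had been applied by pin tool the day after seeding as one drug alone or as a fixed anchor-drug dose with five library-drug doses (not always all listed) in √10 steps. Relative viability is the nuclei count of treated wells divided by that of vehicle wells, and values are medians of duplicate plates.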

EHT 1864 + Foretinib = compound: C1COCCN1CC2=CC(=O)C(=CO2)OCCCCCSC3=C4C=CC(=CC4=NC=C3)C(F)(F)F [EHT 1864] + COc1cc2c(Oc3ccc(NC(=O)C4(C(=O)Nc5ccc(F)cc5)CC4)cc3F)ccnc2cc1OCCCN1CCOCC1 [Foretinib] (partner 0.25 µM)
Summary of the method: as §1

EHT 1864 + AZD7762 = compound: C1COCCN1CC2=CC(=O)C(=CO2)OCCCCCSC3=C4C=CC(=CC4=NC=C3)C(F)(F)F [EHT 1864] + NC(=O)Nc1cc(-c2cccc(F)c2)sc1C(=O)N[C@H]1CCCNC1 [AZD7762] (partner 0.2 µM)
Summary of the method: as §1

EHT 1864 + Luminespib = compound: C1COCCN1CC2=CC(=O)C(=CO2)OCCCCCSC3=C4C=CC(=CC4=NC=C3)C(F)(F)F [EHT 1864] + CCNC(=O)c1noc(-c2cc(C(C)C)c(O)cc2O)c1-c1ccc(CN2CCOCC2)cc1 [Luminespib] (partner 0.01 µM)
Summary of the method: as §1

Cell Line	relative viability (EHT 1864 + Tozasertib; first compound 0.04 µM)	relative viability (EHT 1864 + Tozasertib; first compound 0.1265 µM)	relative viability (EHT 1864 + Tozasertib; first compound 0.4 µM)	relative viability (EHT 1864 + Tozasertib; first compound 1.265 µM)	relative viability (EHT 1864 + Tozasertib; first compound 4 µM)	relative viability (EHT 1864 + Foretinib; first compound 0.04 µM)	relative viability (EHT 1864 + Foretinib; first compound 0.1265 µM)	relative viability (EHT 1864 + Foretinib; first compound 0.4 µM)	relative viability (EHT 1864 + Foretinib; first compound 1.265 µM)	relative viability (EHT 1864 + Foretinib; first compound 4 µM)	relative viability (EHT 1864 + AZD7762; first compound 0.04 µM)	relative viability (EHT 1864 + AZD7762; first compound 0.1265 µM)	relative viability (EHT 1864 + AZD7762; first compound 0.4 µM)	relative viability (EHT 1864 + AZD7762; first compound 1.265 µM)	relative viability (EHT 1864 + AZD7762; first compound 4 µM)	relative viability (EHT 1864 + Luminespib; first compound 0.04 µM)	relative viability (EHT 1864 + Luminespib; first compound 0.1265 µM)	relative viability (EHT 1864 + Luminespib; first compound 0.4 µM)	relative viability (EHT 1864 + Luminespib; first compound 1.265 µM)	relative viability (EHT 1864 + Luminespib; first compound 4 µM)
NCI-H460	0.398	0.453	0.384	0.174	0.152	1	0.921	1.01	1.01	0.853	0.642	0.541	0.635	0.436	0.568	0.0334	0.0284	0.0337	0.0326	0.0353
NCI-H596	0.843	0.733	0.869	1.06	0.754	0.836	0.701	0.752	0.745	0.821	1.21	1.04	1.1	1.04	1.46	0.953	0.986	1.03	0.972	1.05
NCI-H647	0.218	0.169	0.414	0.175	0.132	1.19	0.977	1.37	1.27	1.26	0.621	0.296	0.661	0.44	0.461	0.196	0.213	0.126	0.102	0.111
NCI-H650	0.671	0.667	0.708	0.642	0.722	0.99	0.859	0.97	1.03	0.99	0.994	0.612	1.13	1.1	1.06	0.882	0.658	0.664	0.889	0.865
NCI-H727	0.574	0.573	0.611	0.503	0.592	0.905	0.875	0.724	0.95	0.928	0.579	0.693	0.587	0.555	0.794	0.62	0.417	0.376	0.538	0.385
NCI-H838	0.244	0.227	0.26	0.241	0.223	0.88	0.864	1.05	0.95	1.01	0.959	0.895	0.886	0.872	0.959	0.274	0.237	0.383	0.266	0.293
NCI-H1355	0.558	0.452	0.582	0.391	0.464	0.972	0.815	0.921	0.95	0.966	0.876	0.65	0.725	0.688	0.68	0.711	0.652	0.691	0.654	0.699
NCI-H1395	0.831	0.65	0.772	0.719	0.723	1.03	0.924	0.897	1.02	0.859	0.394	0.37	0.389	0.437	0.436	0.605	0.688	0.648	0.76	0.673

— the supplement of paper PMC10307832
